The values below come from patent EP1953237A1, “A method for the production of short chained glycolipids” (ECOVER N.V., priority 2007, dated 2008).

For series [1] the following is noted: to clarify 100 ml AD solution of 2.5 wt. % laureth sulphate and 10% NaOH. The method, then:
In this example the amount of hydrotrope needed to clarify a 100 ml AD solution of 2.5 wt. % laureth sulphate and 10% NaOH.

Another series relates to M. furfur. Description: Minimal inhibitory concentration, agar dilution with olive oil overlay. The series is classed as cell-based. The conditions noted are these: 48 hours at 37°C, Sabouraud's dextrose agar with olive oil. The method, then:
The yeast M. furfur is one of the natural causes of dandruff formation. Since it is a lipophilic yeast, the in vitro growth must be stimulated by natural oils or other fatty substances when determining minimal inhibitory concentrations (MIC). We used the most common method, which is to overlay Sabouraud's dextrose agar containing cycloheximide (actidione) with olive oil.
A dilution series (1, ½ ¼, 1/8, 1/16..) was prepared. One ml of this dilution was added to 3 petri dishes per concentration and mixed with the warm agar. After cooling a drop of the yeast culture suspension was dropped on the petri dish and left to grow for 48 hours at 37°C.
The MIC was determined for azelaic acid (pa VWR) neutralized with NaOH, azelaic mixture with SL9:0 (from ex.O.1) and calcium purified azelaic mixture with SL9:0. Whereas a 30% azelaic solution was needed for complete inhibition was needed, only 20% of the (SL9-azelaic) mixture of ex.O.1 was needed.

The subject of another series is Candida bombicola. In kind it is cell-based. The conditions noted are these: for number of colony forming units: ester 30 g/l in total. The procedure: A one litre baffled shake flask was filled with 200 ml medium according to Lang and co-workers (2000) and inoculated with Candida bombicola and left to grow at 30°C and 200 rpm. After 48 h 10 g/l Dodecyl glutarate was added. On day 5, 6 and 7 another 7.5 , 5 and 7.5 g/l ester was added. On day 10 the fermentation was stopped. The number of colony forming units was somewhat lower compared to fermentations on rapeseed oil or glucose. […] The sophorolipid yield as gravimetrically determined amounted 26 g/l. The residual ester concentration was 13 g/l. Dodecyl glutarate is a solid which was difficult to dose and tended to agglomerate, thus limiting the availability to Candida and probably causing part of the residual substrate. […] These peaks were identified by RP-HPLC-MS (Waters ZQ) using quadrupole electrospray negative ion detection (see figure 1). […] Both the lactonic and the acid diacetylated form were identified as well as traces of monoacetylated species. [formula]
To verify whether the ester or the glutaric acid which may be released following hydrolysis during the fermentation were toxic, 200 ml cultures were set up in one litre shaking flasks at 200 rpm. After 48 hours glutaric acid was added; 0, 10 or 100 %, the latter corresponding to the maximum amount of glutaric acid after hydrolysis of 30 g/l dodecyl glutarate (which equals the total amount of substrate added for synthesis). Eight days after the initial addition of glutaric acid the fermentation was stopped. […] It is therefore concluded that the toxicity of dodecyl glutarate is due to the product itself, rather than to hydrolysis products.
Taking into account the above results, a new experiment was set up in a Biostat B5 containing 3 litre medium to which 4g/l rapeseed oil was added in order to avoid toxic effects during the growth phase. From 48 hours onwards small portions of dodecyl glutarate, ester T0 in table 3 were added daily, totalling 145.5 gram during 7 days. Dodecyl glutarate has the same apparent chain length as stearic acid. After the last addition on day 8, the fermentation was run for another 48 hour and terminated 240 hours after the start. The fermentor was operated at 800 rpm mixing speed, 30°C and 1 vvm aeration, always assuring far higher oxygen concentrations than the 15% or less described in US6433152. After 140 hours the initial glucose was almost completely consumed and an additional 43 g/l was added. The pH was kept at 3.5 with 5 M NaOH and the oxygen saturation was varied between 70 and 85% during the production phase, rising 10 to 20 hours after each addition, which indicated the substrate was more or less consumed. The number of CFU in the production phase remained at approximately 6.10^9/ml, the dry cell weight at about 15 g/l, both values being considerably lower than typical values for rapeseed oil fermentations with resp. […] After about 200 hours more and more yeast cells changed aspect from the normal round shape to a flattened shape. This forms an indication of the stress the cells were experiencing due to the product formed and or the decreasing glucose concentration. […]
A new T2 batch was produced with increased care to completely remove the solvent. This batch was not toxic, with the number of CFU remaining stable (above 10^9/ml) over time, independent of the substrate concentration.
Shakeflask experiments with decyl heptanoate (ester T10 in table 2) gave similar results, indicating high toxicity for the first ester batch. […] The mass spectrometric analysis after alkaline hydrolysis of sophorolipids obtained from T10 ester, other than the obvious de novo sophorolipids and hydroxy dodecanoic acid is summarized in table 6 below. […] Note that again methyl terminated sophorolipids as well as sophorolipids with surplus glucose units were identified as de novo synthesized products. For both esters the dissolved oxygen concentration never came below 40% and averaged 65% (T2) and 63% (T10). […]

Setting [2] is: shake flask, new/improved ester batch, solvent removed.
The mark [3] stands for this setting: shake flask, 10 or 100 % of the amount released from 30 g/l dodecyl glutarate, 8 days.

Read-outs that look alike come from different tables or passages of the source.

For the molecule `CCO` [Ethanol], the “% active matter needed” value in series [1] came to 26%.
As for `O=C(O)CCCCCCCC(=O)O` [azelaic acid], in the series with M. furfur, the “MIC (lowest concentration which completely inhibits growth)” value was determined as 30%.
Turning to `CCCCCCCCCCOC(=O)CCCCCC` [decyl heptanoate], the substrate toxicity entry is “high toxicity” in the series on Candida bombicola (shake flask, first ester batch) and “slightly toxic” with Candida bombicola (setting [2]). Moreover, the “number of CFU” value in the series on Candida bombicola (shake flask, improved batch, after reduction) was 3 x 10^9 CFU/ml; with Candida bombicola (shake flask, improved batch, before reduction), 6,5 x 10^9 CFU/ml.
Consider `CCCCCCCCCCCCOC(=O)CCCC(=O)O` [dodecyl glutarate, Dodecyl glutarate], for which the toxicity entry in the series on Candida bombicola (Biostat B5 fermentor) was “moderate toxicity”. The “number of CFU in the production phase” value in the series on Candida bombicola (Biostat B5 fermentor, 145.5 gram ester during 7 days) was “approximately 6.10^9 /ml”. Besides, the dry cell weight result in the series with Candida bombicola (Biostat B5 fermentor, production phase) is recorded as “about 15 g/l”. In addition, the “toxicity effect of the ester” value with Candida bombicola (shake flask fermentation) was “moderate toxicity effect”. For the same molecule, the “number of colony forming units” value in the series with Candida bombicola (shake flask, at the end of the experiment (day 10)) is listed as ~1.10^9 /ml; with Candida bombicola (shake flask, value before the drop (printed 'approx. 4', x 10^9 implied)), “approx. 4 /ml”.
As to `CCCCCCCCCCCCOC(=O)CCCC` [dodecyl pentanoate], in the series on Candida bombicola (shake flask, first ester batch), the “substrate concentration from which toxicity was shown” value is on record as at least 10 mM. The substrate toxicity entry in the series on Candida bombicola (shake flask, first ester batch) is given as “pronounced substrate toxicity”; in the series on Candida bombicola (setting [2]) it was “not toxic”. Further, the “number of CFU” value in the series on Candida bombicola (shake flask, new batch, stable over time, independent of substrate concentration) was “above 10^9 /ml”.
On to `O=C(O)CCCC(=O)O` [glutaric acid, reference compound], for which, in the series with Candida bombicola (setting [3]), the “growth in terms of colony forming units” value is on record as “did not inhibit growth” and the “sophorolipid production by Candida bombicola” value is listed as “nor did it lower the sophorolipid production”.
